# Experimental data taken from article PMC2770649 (Nucleic Acids Research, 2009).
# Columns and labels:
# [1] = molecular target: human DNA pol β (Homo sapiens, UniProt P06746); assay: Reporter-strand displacement assay, 1536-well format, pol β; type: biochemical; settings: IC50 against pol β, approximate value
# [2] = molecular target: T1, human DNA pol ι (Homo sapiens, UniProt Q9UNA4); assay: Reporter-strand displacement assay, 1536-well format, pol ι; type: biochemical; settings: IC50 against pol ι, approximate value
# T1 sequence (Q9UNA4 1-740): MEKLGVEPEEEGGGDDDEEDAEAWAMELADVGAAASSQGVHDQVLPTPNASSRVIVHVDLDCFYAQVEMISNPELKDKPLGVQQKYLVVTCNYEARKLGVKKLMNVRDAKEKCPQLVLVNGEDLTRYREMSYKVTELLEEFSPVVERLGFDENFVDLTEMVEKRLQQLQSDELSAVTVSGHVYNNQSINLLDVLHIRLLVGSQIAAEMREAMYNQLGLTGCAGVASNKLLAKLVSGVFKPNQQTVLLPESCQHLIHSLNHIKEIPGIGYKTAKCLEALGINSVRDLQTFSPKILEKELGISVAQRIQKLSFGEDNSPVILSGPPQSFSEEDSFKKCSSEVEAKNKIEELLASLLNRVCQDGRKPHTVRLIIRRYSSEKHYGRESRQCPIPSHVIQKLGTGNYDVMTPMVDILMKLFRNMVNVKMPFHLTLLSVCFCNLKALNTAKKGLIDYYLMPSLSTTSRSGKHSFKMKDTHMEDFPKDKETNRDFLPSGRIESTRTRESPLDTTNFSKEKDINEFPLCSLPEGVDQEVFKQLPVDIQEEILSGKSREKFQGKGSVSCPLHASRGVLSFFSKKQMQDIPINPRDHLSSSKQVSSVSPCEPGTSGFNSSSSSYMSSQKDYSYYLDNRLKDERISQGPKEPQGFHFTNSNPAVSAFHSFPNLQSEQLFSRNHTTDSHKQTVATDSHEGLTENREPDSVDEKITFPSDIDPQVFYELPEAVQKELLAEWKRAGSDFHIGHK
SMILES,IC50 [1] [µM],IC50 [2] [µM]
O=c1oc2c(O)c(O)cc3c(=O)oc4c(O)c(O)cc1c4c23 [Ellagic acid],~0.02,~0.09
O=C(O)C1=CC(=C(c2ccc(O)c(C(=O)O)c2)c2ccc(O)c(C(=O)O)c2)C=CC1=O [Aurintricarboxylic acid],~0.02,~0.09
